Results as given in US12517131B2, “Methods for labeling eukaryotic cells from a multicellular organism as well as for treating and/or diagnosing a cancer using modified monosaccharide compounds” (DIAMIDEX, priority 2019, dated 2026).

Legend:
A431 (vs Hacat) = assay: Labeling of cancer and non-cancer cells, fluorescence signal ratio; type: cell-based, human; conditions: A431 (30 h) vs Hacat (30 h); Ara-N3 10 mM; FBS 10%; one doubling time
Experimental: (§1) The fluorescence Assimilation of Ara-N3 probes was visualized by copper-free click chemistry using sulfo-DBCO-biotin (1 mM), followed by labeling with a mouse anti-biotin Alexa Fluor 488 antibody conjugate (0.62 mg/ml stock, Jackson ImmunoResearch, dilution 1/10). The click reaction was carry-out as following: At 24 h incubation times, the culture mediums were removed, and attached cells were washed twice with PBS. Cells were detached with Tryp-LE, washed twice with PBS, and centrifuged at 13000 g for 2 min. The cellular pellets were resuspended with 10 μL of sulfo-DBCO-biotin and incubated 30 min in the dark, and at 37 C°. Then, cells were washed twice with PBS, centrifuged, and cellular pellets were resuspended with 10 μL of a mouse anti-biotin antibody solution, before to be incubated at room temperature in dark. Thereafter, cells were washed twice with PBS and small cellular suspension spots (5 μL) were put in Polysine® adhesion slides (VWR international S.A.S), in the dark room, until dry (20 min). The spots were fixed with 4% paraformaldehyde during 20 min, in dark and room temperature. Slides were then washed twice with PBS, before recovering with square cover glasses (VWR international S.A.S) using glycerol Mounting Medium (Dako) and stored at 4° C. in dark room.
(§2) The fluorescence acquisition was recorded using Olympus Microscopy IX83 (Olympus Life Science) equipped with a 60×/1.3 […]/1.4 SRI (silicone refractive index) objective, and Hamamatsu oreca flash 4 LT camera with 109 nm/pixel calibrated pixel size. The excitation light was emitted by X-CITE 120LED using the AT180/30X excited filter and signal was monitored using AT535/40m emission filter. Green light exposition time was 600 ms and white light exposition time was determined by DIC methods at […]. The acquisition area size analyzed by the Celisens dimension V1.16 software was different depending on the cell number containing in the spot.
(§3) The images were processed using count and measure unit of the Cellsens dimension V1.16 software. The background noise was deleted as follows: ROI were first defined on the background of the image and the average pixel intensity was calculated. The value thus obtained was subtracted from all pixels of the image. The fluorescence intensity of each cell was determined from a threshold set at a value of 3030. All pixels that have intensity below 3030 were not counted.
(§4) The same experiments as in example 2 with other cancer and corresponding non cancer cells were performed. The culture media were adapted to the tested cells and supplemented by 10% fetal bovine serum (FBS). Ara-N3 probe (10 mM) was added to culture media with FBS concentration (10%). The incubation times corresponded to one doubling time or twice doubling time of the tested cells (see table below).
(§5) The fluorescence signal cancer/non cancer ratios were calculated based on fluorescence intensities obtained with Ara-N3 tested on cancer and corresponding non cancer cells.

[1] = tested on: AGS (vs Stomach epitelial cell); assay: as above; type: cell-based, human; conditions: AGS (doubling time 30 h) vs Stomach epitelial cell (30 h); Ara-N3 10 mM; FBS 10%; test at 2 doubling time
Experimental: as §1, §2, §3, §4, §5

[2] = tested on: BL-2 (vs Isolated primary B cells); assay: as above; type: cell-based, human; conditions: BL-2 (24 h) vs Isolated primary B cells; Ara-N3 10 mM; FBS 10%
Experimental: as §1, §2, §3, §4, §5

[3] = tested on: DOHH-2 (vs Isolated primary B cells); assay: as above; type: cell-based, human; conditions: DOHH-2 (40-48 h) vs Isolated primary B cells; Ara-N3 10 mM; FBS 10%
Experimental: as §1, §2, §3, §4, §5

[4] = tested on: HT29 (vs Colon epithelial cell); assay: as above; type: cell-based, human; conditions: HT29 (doubling time 40 h) vs Colon epithelial cell (40 h); Ara-N3 10 mM; FBS 10%; test at 2 doubling time
Experimental: as §1, §2, §3, §4, §5

K562 (vs Lymphocytes T) = assay: as above; type: cell-based, human; conditions: K562 (24 h) vs Lymphocytes T (24 h); Ara-N3 10 mM; FBS 10%; one doubling time
Experimental: as §1, §2, §3, §4, §5

KCL22 (vs Lymphocytes) = assay: as above; type: cell-based, human; conditions: KCL22 (24 h) vs Lymphocytes (24 h); Ara-N3 10 mM; FBS 10%; one doubling time
Experimental: as §1, §2, §3, §4, §5

Kasumi-1 (vs B12-F8) = assay: as above; type: cell-based, human; conditions: Kasumi-1 (48 h) vs B12-F8 (24 h); Ara-N3 10 mM; FBS 10%; one doubling time
Experimental: as §1, §2, §3, §4, §5

MDA MB453 (vs HME-1) = assay: as above; type: cell-based, human; conditions: MDA MB453 (30 h) vs HME-1 (30 h); Ara-N3 10 mM; FBS 10%; one doubling time
Experimental: as §1, §2, §3, §4, §5

[5] = tested on: MDA-MB-231 (vs Breast epithelial cell); assay: as above; type: cell-based, human; conditions: MDA-MB-231 (doubling time 40 h) vs Breast epithelial cell (40 h); Ara-N3 10 mM; FBS 10%; test at 2 doubling time
Experimental: as §1, §2, §3, §4, §5

RS4 (vs Lymphocytes T) = assay: as above; type: cell-based, human; conditions: RS4 (35 h) vs Lymphocytes T (24 h); Ara-N3 10 mM; FBS 10%; one doubling time
Experimental: as §1, §2, §3, §4, §5

SK-BR-7 (vs HME-1) = assay: as above; type: cell-based, human; conditions: SK-BR-7 (30 h) vs HME-1 (30 h); Ara-N3 10 mM; FBS 10%; one doubling time
Experimental: as §1, §2, §3, §4, §5

[6] = tested on: THP1 (vs Monocytes/Macrophages); assay: as above; type: cell-based, human; conditions: THP1 (26 h) vs Monocytes/Macrophages (26 h); Ara-N3 10 mM; FBS 10%; one doubling time
Experimental: as §1, §2, §3, §4, §5

[7] = In vivo non-toxicity of Ara-N3 in nude mice; set-up: species or system NMRI nude mice
Experimental: Ten Female NMRI nude mice (6 weeks old, Janvier, Le Genest-Saint Isle, France) were enrolled in this assay. Three were injected intravenously every other day for 8 days (4 injections) with 50 mg/mouse/injection of Ara-N3 for 200 mg cumulative dose, and three other mice were treated for 8 days with 50 mg of Ara-N3 in 8 mL of water consumed per day, for 400 mg cumulative dose. As control groups, four tumor-bearing mice were not treated.
Mice were euthanized and dissected at the end of treatment. Heart, lung, brain, uterus, ovaries, kidney, skeletal muscle, spleen, pancreas, abdominal fat, liver, skin, stomach, colon, caecum, small intestine, mesenteric lymph nodes, axillary lymph nodes, brachial lymph nodes and total blood were harvested and frozen for analyses.

[N-]=[N+]=NC[C@H]1OC(O)[C@@H](O)[C@@H]1O (stereo partly drawn) [Ara-N3, 5-azido-5-deoxy-D-arabinofuranose]
Cancer/Non Cancer Ratio (fluorescence signal) (A431 (vs Hacat)): 17.5 | Cancer/Non Cancer Ratio (fluorescence signal) [1]: 2.9 | Cancer/Non Cancer Ratio (fluorescence signal) [2]: 2.5 | Cancer/Non Cancer Ratio (fluorescence signal) [3]: 7.4 | Cancer/Non Cancer Ratio (fluorescence signal) [4]: 13.2 | Cancer/Non Cancer Ratio (fluorescence signal) (K562 (vs Lymphocytes T)): 1.6 | Cancer/Non Cancer Ratio (fluorescence signal) (KCL22 (vs Lymphocytes)): 4.9 | Cancer/Non Cancer Ratio (fluorescence signal) (Kasumi-1 (vs B12-F8)): 1.5 | Cancer/Non Cancer Ratio (fluorescence signal) (MDA MB453 (vs HME-1)): 2.2 | Cancer/Non Cancer Ratio (fluorescence signal) [5]: 2.5 | Cancer/Non Cancer Ratio (fluorescence signal) (RS4 (vs Lymphocytes T)): 1.6 | Cancer/Non Cancer Ratio (fluorescence signal) (SK-BR-7 (vs HME-1)): 2.1 | Cancer/Non Cancer Ratio (fluorescence signal) [6]: 19.5 | water consumption of the mice ([7]; Ara-N3 in drinking water up to 6.25 mg/mL, 8 days): did not alter the water consumption | Non-toxic concentration of Ara-N3 ([7]; In vivo, Nude mouse (mice)): >1 mM | body weight loss ([7]; in drinking water, 50 mg in 8 mL per day for 8 days, 400 mg cumulative dose): did not induce any body weight loss | body weight loss ([7]; intravenous injections, 50 mg/mouse/injection every other day for 8 days, 200 mg cumulative dose): did not induce any body weight loss
